In patent publication US11604184B2, “Juvenile atopic dermatitis models” (Laboratoires Expanscience, priority 2016, dated 2023):

Tested on: S. aureus biofilm
Experiment: Model for studying S. aureus biofilm on reconstructed epidermises (scanning electron microscopy)
Type: cell-based, Staphylococcus aureus (MRSA; ATCC 33591)
Details: 24 hours after colonization
Method: The test products (P1, P5 or P8) or 5% xylitol (positive control for inhibition of biofilm formation) were applied topically to reconstructed epidermises at a rate of 30 μL/epidermis, after undergoing slight surface abrasion.
After incubation overnight, the products were removed by rinsing and a 2·10^6 cfu inoculum of Staphylococcus aureus (methicillin-resistant S. aureus, MRSA; ATCC 33591) was applied to the surface of the reconstructed epidermises.
Biofilm formation and the effect of the product thereon were observed visually by scanning electron microscopy (SEM) 6 and 24 hours after colonization.

Structure (SMILES): OC[C@@H](O)[C@H](O)[C@@H](O)CO [xylitol]
- S. aureus biofilm formation on the surface of epidermises, observed by SEM (in words): did not produce biofilm
